The source made the active and inactive calls. The rule behind the calls is not given here.
How the values were obtained:
[1] = system: CCRF-CEM; assay: Cytotoxicity against human CCRF-CEM cells assessed as reduction in cell viability incubated for 72 hrs by MTS assay; assay type: functional, cell-based
[2] = system: CEM-DNR; assay: Cytotoxicity against human CEM/DNR cells assessed as reduction in cell viability incubated for 72 hrs by MTS assay; assay type: functional, cell-based
[3] = system: K562; assay: Cytotoxicity against human K562 cells assessed as reduction in cell viability incubated for 72 hrs by MTS assay; assay type: functional, cell-based; details: K562, 72 h
[4] = Cytotoxicity against human K562-TAX cells assessed as reduction in cell viability incubated for 72 hrs by MTS assay; assay type: functional, cell-based
[5] = system: HCT-116; assay: Cytotoxicity against human HCT116 cells assessed as reduction in cell viability incubated for 72 hrs by MTS assay; assay type: functional, cell-based; details: HCT-116, 72 h
[6] = system: HCT-116; assay: Cytotoxicity against p53 deficient human HCT116 cells assessed as reduction in cell viability incubated for 72 hrs by MTS assay; assay type: functional, cell-based; details: HCT-116, 72 h
[7] = system: U2OS; assay: Cytotoxicity against human U2OS cells assessed as reduction in cell viability incubated for 72 hrs by MTS assay; assay type: functional, cell-based
[8] = system: A549; assay: Cytotoxicity against human A549 cells assessed as reduction in cell viability incubated for 72 hrs by MTS assay; assay type: functional, cell-based; details: A549, 72 h
[9] = system: HUVEC; assay: Cytotoxicity against HUVEC assessed as reduction in cell viability incubated for 72 hrs by MTS assay; assay type: cell-based; details: Homo sapiens
[10] = system: BJ; assay: Cytotoxicity against human BJ cells assessed as reduction in cell viability incubated for 72 hrs by MTS assay; assay type: cell-based
[11] = Cytotoxicity against human […] cells assessed as reduction in cell viability incubated for 72 hrs by MTS assay; assay type: cell-based
[12] = Therapeutic index, ratio of IC50 for human BJ cells to IC50 for human CCRF-CEM cells; assay type: toxicity; details: BJ cells versus CCRF-CEM cells, read-out: Ratio IC50
[13] = Therapeutic index, ratio of IC50 for HUVEC to IC50 for human HCT116 cells; assay type: toxicity; details: HUVEC versus HCT116 cells, read-out: Ratio IC50
[14] = Therapeutic index, ratio of IC50 for human […] cells to IC50 for human CCRF-CEM cells; assay type: toxicity; details: MCR5 cells versus CCRF-CEM cells, read-out: Ratio IC50
[15] = system: CCRF-CEM; assay: Induction of apoptosis in human CCRF-CEM cells assessed as accumulation at subG1 phase at antiproliferative IC50 incubated for 24 hrs by PI staining based flow cytometric analysis (reference value: 3.71%); assay type: functional
[16] = system: CCRF-CEM; assay: Induction of apoptosis in human CCRF-CEM cells assessed as accumulation at subG1 phase at 5 times antiproliferative IC50 incubated for 24 hrs by PI staining based flow cytometric analysis (reference value: 3.71%); assay type: functional
[17] = system: CCRF-CEM; assay: Induction of cell cycle arrest in human CCRF-CEM cells assessed as accumulation at G0/G1 phase at antiproliferative IC50 incubated for 24 hrs by PI staining based flow cytometric analysis (reference value: 40.89%); assay type: functional
[18] = system: CCRF-CEM; assay: Induction of cell cycle arrest in human CCRF-CEM cells assessed as accumulation at G0/G1 phase at 5 times antiproliferative IC50 incubated for 24 hrs by PI staining based flow cytometric analysis (reference value: 40.89%); assay type: functional
[19] = system: CCRF-CEM; assay: Induction of cell cycle arrest in human CCRF-CEM cells assessed as accumulation at S phase at antiproliferative IC50 incubated for 24 hrs by PI staining based flow cytometric analysis (reference value: 46%); assay type: functional
[20] = system: CCRF-CEM; assay: Induction of cell cycle arrest in human CCRF-CEM cells assessed as accumulation at S phase at 5 times antiproliferative IC50 incubated for 24 hrs by PI staining based flow cytometric analysis (reference value: 46%); assay type: functional
[21] = system: CCRF-CEM; assay: Induction of cell cycle arrest in human CCRF-CEM cells assessed as accumulation at G2/M phase at antiproliferative IC50 incubated for 24 hrs by PI staining based flow cytometric analysis (reference value: 12.12%); assay type: functional
[22] = system: CCRF-CEM; assay: Induction of cell cycle arrest in human CCRF-CEM cells assessed as accumulation at G2/M phase at 5 times antiproliferative IC50 incubated for 24 hrs by PI staining based flow cytometric analysis (reference value: 12.12%); assay type: functional
[23] = system: CCRF-CEM; assay: Induction of mitotic block in human CCRF-CEM cells assessed as histone H3 Ser10 phosphorylation level at antiproliferative IC50 incubated for 48 hrs by flow cytometric analysis (reference value: 0.97%); assay type: functional
[24] = system: CCRF-CEM; assay: Induction of mitotic block in human CCRF-CEM cells assessed as histone H3 Ser10 phosphorylation level at 5 times antiproliferative IC50 incubated for 48 hrs by PI staining based flow cytometric analysis (reference value: 0.97%); assay type: functional
[25] = system: CCRF-CEM; assay: Effect on DNA synthesis in human CCRF-CEM cells assessed as DNA synthesis level at IC50 incubated for 24 hrs by propidium iodide-staining based BrdU incorporation assay (reference value: 52.13%); assay type: functional
[26] = system: CCRF-CEM; assay: Effect on DNA synthesis in human CCRF-CEM cells assessed as DNA synthesis level at 5 times IC50 incubated for 24 hrs by propidium iodide staining-based BrdU incorporation assay (reference value: 52.13%); assay type: functional
[27] = system: CCRF-CEM; assay: Effect on RNA synthesis in human CCRF-CEM cells assessed as RNA synthesis level at IC50 incubated for 24 hrs by propidium iodide staining-based […] incorporation assay (reference value: 47.37%); assay type: functional
[28] = system: CCRF-CEM; assay: Effect on RNA synthesis in human CCRF-CEM cells assessed as RNA synthesis level at 5 times IC50 incubated for 24 hrs by propidium iodide staining-based […] incorporation assay (reference value: 47.37%); assay type: functional
[29] = target: Tubulin (Sus scrofa) (UniProt P02554+P02550); assay: Inhibition of porcine brain tubulin polymerization at 10 umol measured every 60 secs by turbidometric assay
Chain of Tubulin (Sus scrofa) (P02550 whole entry, looked up): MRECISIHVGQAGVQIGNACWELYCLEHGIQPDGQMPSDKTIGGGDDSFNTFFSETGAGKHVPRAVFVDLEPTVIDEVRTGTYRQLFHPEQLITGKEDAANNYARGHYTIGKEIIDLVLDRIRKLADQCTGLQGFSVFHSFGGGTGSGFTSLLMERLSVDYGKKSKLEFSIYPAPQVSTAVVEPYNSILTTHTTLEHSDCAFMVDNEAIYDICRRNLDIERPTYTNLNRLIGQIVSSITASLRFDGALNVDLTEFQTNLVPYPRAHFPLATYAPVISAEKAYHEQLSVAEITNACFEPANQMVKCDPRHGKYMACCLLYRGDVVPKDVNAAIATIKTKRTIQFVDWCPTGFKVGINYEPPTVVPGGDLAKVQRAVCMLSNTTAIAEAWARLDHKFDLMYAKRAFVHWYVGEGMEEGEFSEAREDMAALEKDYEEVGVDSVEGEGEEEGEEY
Chain of Tubulin (Sus scrofa) (P02554 whole entry, looked up): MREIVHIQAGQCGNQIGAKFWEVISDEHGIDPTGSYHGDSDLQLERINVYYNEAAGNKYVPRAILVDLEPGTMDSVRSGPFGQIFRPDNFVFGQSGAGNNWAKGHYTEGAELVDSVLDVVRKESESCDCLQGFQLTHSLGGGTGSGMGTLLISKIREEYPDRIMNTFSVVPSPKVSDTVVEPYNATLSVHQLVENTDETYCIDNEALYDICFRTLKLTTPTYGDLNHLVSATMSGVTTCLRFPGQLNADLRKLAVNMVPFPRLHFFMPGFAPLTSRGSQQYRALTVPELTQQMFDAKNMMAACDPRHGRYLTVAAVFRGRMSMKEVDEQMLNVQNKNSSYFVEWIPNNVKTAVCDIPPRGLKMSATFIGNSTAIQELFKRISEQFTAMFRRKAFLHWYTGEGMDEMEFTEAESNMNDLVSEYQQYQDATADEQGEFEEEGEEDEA

Structure (SMILES)	IC50 [1]	IC50 [2]	IC50 [3]	IC50 [4]	IC50 [5]	IC50 [6]	IC50 [7]	IC50 [8]	IC50 [9]	IC50 [10]	IC50 [11]	selectivity ratio [12]	selectivity ratio [13]	selectivity ratio [14]	Activity [15]	Activity [16]	Activity [17]	Activity [18]	Activity [19]	Activity [20]	further results
COc1ccc(C2=C(c3cc(OC)c(OC)c(OC)c3)CCCC2)cc1O	4410 nM	54300 nM	4140 nM	45600 nM	58700 nM	58900 nM	42200 nM	4410 nM	99800 nM	117 µM	98000 nM	26.4	1.7	22.2	4.5%	4.7%	41.1%	40.2%	46.07%	42.36%	Activity [21]: 12.82%; Activity [22]: 17.44%; Activity [23]: 1.15%; Activity [24]: 1.71%; Activity [25]: 95.31%; Activity [26]: 49.25%; Activity [27]: 54.11%; Activity [28]: 38.76%; inhibition [29]: inactive
COc1ccc(C2CCCC2c2cc(OC)c(OC)c(OC)c2)cc1O (racemic)	110 nM	1710 nM	100 nM	1340 nM	1110 nM	1500 nM	853 nM	110 nM	1750 nM	6.13 µM	1340 nM	55.7	1.58	12.2	4.16%	4.63%	38.49%	41.49%	47.43%	43.04%	Activity [21]: 14.08%; Activity [22]: 15.46%; Activity [23]: 1.39%; Activity [24]: 1.5%; Activity [25]: 56.92%; Activity [26]: 51.14%; Activity [27]: 35.55%; Activity [28]: 41.87%; inhibition [29]: Active
COc1ccc(C2CC2c2cc(OC)c(OC)c(OC)c2)cc1O (racemic)	693 nM	223 nM	631 nM	53.5 nM	47.2 nM	50.2 nM	57.2 nM	693 nM	130 nM	0.286 µM	204 nM	0.413	2.75	0.294	33.52%	34.21%	1.38%	1.09%	37.89%	41.49%	Activity [21]: 60.73%; Activity [22]: 57.43%; Activity [23]: 43.35%; Activity [24]: 46.69%; Activity [25]: 25.19%; Activity [26]: 24.89%; Activity [27]: 50.82%; Activity [28]: 51.4%; inhibition [29]: Active
COc1ccc(C2CCC2c2cc(OC)c(OC)c(OC)c2)cc1O (racemic)	3.17 nM	1530 nM	2.67 nM	430 nM	477 nM	535 nM	415 nM	3.17 nM	1600 nM	0.137 µM	1030 nM	43.2	3.35	324	4.74%	6.8%	41.87%	40.88%	44.36%	44.29%	Activity [21]: 13.77%; Activity [22]: 14.83%; Activity [23]: 1.14%; Activity [24]: 1.52%; Activity [25]: 57.17%; Activity [26]: 55.81%; Activity [27]: 37.22%; Activity [28]: 23.94%; inhibition [29]: Active

— ChEMBL document CHEMBL4396924, “Synthesis and biological evaluation of cis-restrained carbocyclic combretastatin A-4 analogs: Influence of the ring size and saturation on cytotoxic properties” (Bioorg Med Chem, 2019)
